Data as given in the supplement of paper PMC4862054.

Experiments:
CAL-148 [1] = experiment: normalised viability (% of control), CellTiter-Blue; higher = more viable cells (about 100 = DMSO control); details: incubation time: 72 h
Protocol: (§1)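 DSRT, CellTiter-Blue viability, 72 h incubation. Signal is normalised to DMSO and benzethonium chloride controls. Value is the normalised response at dose 7.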

CAL-51 [2] = experiment: as above; details: incubation time: 72 h
Protocol: as §1

CAL-85-1 [3] = experiment: as above; details: incubation time: 72 h
Protocol: as §1

DU-4475 [4] = experiment: as above; details: incubation time: 72 h
Protocol: as §1

HDQ-P1 [5] = experiment: as above; details: incubation time: 72 h
Protocol: as §1

MDA-MB-453 [6] = experiment: as above; details: incubation time: 72 h
Protocol: as §1

BT-549 [7] = experiment: normalised response (% of control), CellTiter-Glo; higher = more viable cells (100 = DMSO, 0 = benzethonium chloride kill control); details: incubation time: 72 h
How it was run: (§2)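 Compound was dispensed into 384-well plates at 5 concentrations in 10-fold steps spanning a 10,000-fold range specific to that compound. Breast cancer cell lines were added as 20 µl suspension and left for 72 h before CellTox Green fluorescence (485/520 nm) and then CellTiter-Glo luminescence, read after 10 min at room temperature. Each reported value is the normalised signal at one concentration, with 0.1 % DMSO set at 100 and a positive kill control at 0 on each plate.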

CAL-120 [8] = experiment: as above; details: incubation time: 72 h
How it was run: as §2

CAL-148 [9] = experiment: as above; details: incubation time: 72 h
How it was run: as §2

CAL-51 [10] = experiment: as above; details: incubation time: 72 h
How it was run: as §2

CAL-85-1 [11] = experiment: as above; details: incubation time: 72 h
How it was run: as §2

DU-4475 [12] = experiment: as above; details: incubation time: 72 h
How it was run: as §2

HCC1143 [13] = experiment: as above; details: incubation time: 72 h
How it was run: as §2

HCC1599 [14] = experiment: as above; details: incubation time: 72 h
How it was run: as §2

HDQ-P1 [15] = experiment: as above; details: incubation time: 72 h
How it was run: as §2

Hs578T [16] = experiment: as above; details: incubation time: 72 h
How it was run: as §2

MCF-10A = experiment: as above; details: incubation time: 72 h
How it was run: as §2

MDA-MB-231 [17] = experiment: as above; details: incubation time: 72 h
How it was run: as §2

MDA-MB-436 [18] = experiment: as above; details: incubation time: 72 h
How it was run: as §2

MDA-MB-453 [19] = experiment: as above; details: incubation time: 72 h
How it was run: as §2

MDA-MB-468 [20] = experiment: as above; details: incubation time: 72 h
How it was run: as §2

MFM-223 [21] = experiment: as above; details: incubation time: 72 h
How it was run: as §2

BT-549 [22] = details: 72 h
How it was run: (§3)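 Plates of 384 wells holding compound in 5 µl medium received breast cancer cell lines in 20 µl suspension and were incubated 72 h. CellTiter-Blue (2.5 µl, 2 h, 37 °C) was used for viability, read at 560/590 nm, and every plate was normalised to vehicle and a positive kill control and assessed by Z'-factor. The EC50 derives from a percent-inhibition dose-response curve fit censored at the highest concentration, leaving out rows whose drug sensitivity score was zero.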

HCC1937 = details: 72 h
How it was run: as §3

Hs578T [23] = details: 72 h
How it was run: as §3

MDA-MB-231 [24] = details: 72 h
How it was run: as §3

MDA-MB-436 [25] = details: 72 h
How it was run: as §3

MDA-MB-468 [26] = details: 72 h
How it was run: as §3

MFM-223 [27] = details: 72 h
How it was run: as §3

SK-BR-3 = details: 72 h
How it was run: as §3

CAL-120 [28] = details: 72 h
How it was run: as §3

HCC1599 [29] = details: 72 h
How it was run: as §3

HCC1143 [30] = details: 72 h
How it was run: as §3

| EC50, CellTiter-Blue viability (BT-549 [22]) [µM] | EC50, CellTiter-Blue viability (HCC1937) [µM] | EC50, CellTiter-Blue viability (MDA-MB-231 [24]) [µM] | EC50, CellTiter-Blue viability (MDA-MB-436 [25]) [µM] | EC50, CellTiter-Blue viability (MDA-MB-468 [26]) [µM] | EC50, CellTiter-Blue viability (SK-BR-3) [µM] | EC50, CellTiter-Blue viability (HCC1599 [29]) [µM] | EC50, CellTiter-Blue viability (HCC1143 [30]) [µM] | SMILES | normalised viability (CAL-148 [1]) [%] | normalised viability (CAL-51 [2]) [%] | normalised viability (CAL-85-1 [3]) [%] | normalised viability (DU-4475 [4]) [%] | normalised viability (HDQ-P1 [5]) [%] | normalised viability (MDA-MB-453 [6]) [%] | normalised response (BT-549 [7]) [%] | normalised response (CAL-120 [8]) [%] | normalised response (CAL-148 [9]) [%] | normalised response (CAL-51 [10]) [%] | normalised response (CAL-85-1 [11]) [%] | normalised response (DU-4475 [12]) [%] | normalised response (HCC1143 [13]) [%] | normalised response (HCC1599 [14]) [%] | normalised response (HDQ-P1 [15]) [%] | normalised response (Hs578T [16]) [%] | normalised response (MCF-10A) [%] | normalised response (MDA-MB-231 [17]) [%] | normalised response (MDA-MB-436 [18]) [%] | normalised response (MDA-MB-453 [19]) [%] | normalised response (MDA-MB-468 [20]) [%] | normalised response (MFM-223 [21]) [%] | EC50, CellTiter-Blue viability (Hs578T [23]) [µM] | EC50, CellTiter-Blue viability (MFM-223 [27]) [µM] | EC50, CellTiter-Blue viability (CAL-120 [28]) [µM] |
| --- | --- | --- | --- | --- | --- | --- | --- | --- | --- | --- | --- | --- | --- | --- | --- | --- | --- | --- | --- | --- | --- | --- | --- | --- | --- | --- | --- | --- | --- | --- | --- | --- | --- |
|  |  |  |  |  |  |  |  | CC(C)(C)c1cc(NC(=O)Nc2ccc(-c3cn4c(n3)sc3cc(OCCN5CCOCC5)ccc34)cc2)no1 [Quizartinib] (100 nM) | 98.8 | 114 | 89.6 | 115 | 95 | 96.6 | 106 | 106 | 100 | 107 | 102 | 104 | 105 | 111 | 100 | 98.5 | 105 | 108 | 111 | 104 | 113 | 109 |  |  |  |
|  |  |  |  |  |  |  |  | C[C@@]1(C(=O)Nc2ccc(F)nc2)CCCN1c1nc(Nc2cc(C3CC3)n[nH]2)c2cccn2n1 (1000 nM) | 79.6 | 63.4 | 49.4 | 78.6 | 32.3 | 56.6 | 61.4 | 59.3 | 84.9 | 62.5 | 57.6 | 80.4 | 71.5 | 72.8 | 46.7 | 86.5 | 20.4 | 62.4 | 66.9 | 115 | 21.4 | 58.1 |  |  |  |
|  |  |  |  |  |  |  |  | O=c1[nH]c(=O)n([C@H]2C[C@H](O)[C@@H](CO)O2)cc1F [Floxuridine] (1000 nM) | 50.6 | 31.9 | 53.1 | 91.6 | 86.5 | 81.9 | 85.4 | 39.8 | 92.4 | 37.8 | 42.7 | 92.8 | 94.3 | 67.7 | 83.9 | 13.5 | 106 | 76.8 | 67.9 | 102 | 69.4 | 104 |  |  |  |
| 5.58 | 16.4 | 7.15 | 14.7 | 7.12 | 12.6 |  |  | C[C@@H]1C=C2C(=O)O[C@@H]3CC[C@H](C1)[C@]23O [Galiellalactone] |  |  |  |  |  |  |  |  |  |  |  |  |  |  |  |  |  |  |  |  |  |  | 44.6 | 38.2 |  |
|  | 0.371 |  |  |  |  |  |  | CN1CCN(c2ccc3nc(-c4c(N)c5c(F)cccc5[nH]c4=O)[nH]c3c2)CC1 [Dovitinib] |  |  |  |  |  |  |  |  |  |  |  |  |  |  |  |  |  |  |  |  |  |  |  |  |  |
| 1.24 |  | 2.88 | 7.52 | > 10 | 0.532 | 2.52 |  | O=c1[nH]cc(F)c(=O)[nH]1 [Fluorouracil] |  |  |  |  |  |  |  |  |  |  |  |  |  |  |  |  |  |  |  |  |  |  |  |  | 2.53 |
|  |  |  |  |  |  |  |  | COc1ccc(C2=N[C@@H](c3ccc(Cl)cc3)[C@@H](c3ccc(Cl)cc3)N2C(=O)N2CCNC(=O)C2)c(OC(C)C)c1 [Nutlin-3] (1000 nM) | 91.6 | 95.8 | 88.9 | 94.7 | 119 | 97.2 | 100 | 93.6 | 101 | 83.9 | 96.8 | 96.5 | 99.8 | 117 | 105 | 106 | 102 | 106 | 110 | 102 | 99.9 | 104 |  |  |  |
|  |  |  |  |  |  |  |  | COc1cccc2c1C(=O)c1c(O)c3c(c(O)c1C2=O)C[C@@](O)(C(C)=O)C[C@@H]3O[C@H]1C[C@H](N)[C@H](O)[C@H](C)O1 [Daunorubicin] (100 nM) | 30.8 | 38 | 77.2 | 41.7 | 94.9 | 94.8 | 68.9 | 93.1 | 64.8 | 46.2 | 97.5 | 86.9 | 95.8 | 103 | 91.8 | 92.6 | 103 | 88.7 | 77.9 | 139 | 54.9 | 115 |  |  |  |
|  |  | 0.364 |  |  |  | 0.106 | 0.00921 | Cn1cnc2c(F)c(Nc3ccc(Br)cc3F)c(C(=O)NOCCO)cc21 [MEK-162] |  |  |  |  |  |  |  |  |  |  |  |  |  |  |  |  |  |  |  |  |  |  |  |  |  |
